Target: T1, 17-beta-hydroxysteroid dehydrogenase 13 (Homo sapiens, UniProt Q7Z5P4)
T1 sequence (Q7Z5P4 whole entry): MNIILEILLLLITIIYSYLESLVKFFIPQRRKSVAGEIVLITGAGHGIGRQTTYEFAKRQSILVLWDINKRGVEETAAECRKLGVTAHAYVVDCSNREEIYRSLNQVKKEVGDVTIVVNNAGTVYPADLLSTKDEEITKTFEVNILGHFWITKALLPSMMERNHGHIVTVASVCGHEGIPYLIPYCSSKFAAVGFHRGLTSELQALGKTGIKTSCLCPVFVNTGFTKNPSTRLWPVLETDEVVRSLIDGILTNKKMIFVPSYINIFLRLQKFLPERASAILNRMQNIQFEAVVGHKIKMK
Assay: HSD17B13 Enzymatic Blocking Assay (50nM)
Protocol: Compounds of the disclosure were screened for their ability to block HSD17B13 function using an enzymatic blocking assay. HSD17B13 activity was quantified using a NADH Glo luminescence assay (Promega, #Cat. No. G9062) to measure the formation of NADH from the oxidation of LTB4, a known HSD17B13 substrate. Compounds were over a 10-point dose curve using an Echo-555 liquid handling dispenser. HSD17B13 (SEQ ID NO: 1, expressed in E. coli) was added at […] a final concentration of 50 nM, depending on the assay run, in a buffer containing 0.2M Tris-HCl pH 7.5 containing 0.01% Triton-X into a low volume white 384-well assay plate. Compounds were incubated with the enzyme for 30 minutes at room temperature. The assay reaction was then initiated by addition of 10 μM LTB4 substrate (Cayman chemicals, Cat. No. 20110) and 500 μM NAD, and the reaction mixture was incubated for 1 or 2 hours at room temperature depending on the assay run. DMSO at a concentration of 0.5% was used as a negative control, and a ‘no substrate’ control was used as a positive control (100% inhibition) in the assay. […] Generation of NADH was detected in the luminescence mode on the Envision Perkin Elmer plate reader. The IC50 values were determined using Dotmatics analysis software.

Row | IC50 | SMILES
1 | 3450 nM | CC(C)(C)OC(=O)NCCc1cccc2c1CCCC2NC(=O)c1ccc(C(F)(F)F)[nH]c1=O (configuration not stated) [US11957687, Compound 301]
2 | 80 nM | CCCC1Cc2ccc(C)cc2C1NC(=O)c1ccc(C(F)(F)F)[nH]c1=O (configuration not stated) [US11957687, Compound 291]

— BindingDB's records for patent US11957687 (Regeneron Pharmaceuticals, 2024)
